Our source for the IC50 and melting point values is US20070099986A1, “Preventives/remedies for urinary disturbance” (priority 2005, published 2007).

Molecules are shown by their SMILES. Counter-ions that a name gives are not always drawn.

The first series deals with T1, human adrenaline α1A receptor (Homo sapiens, UniProt P35348).
T1 construct: expressed in transfected cells
T1 sequence (P35348 1-466): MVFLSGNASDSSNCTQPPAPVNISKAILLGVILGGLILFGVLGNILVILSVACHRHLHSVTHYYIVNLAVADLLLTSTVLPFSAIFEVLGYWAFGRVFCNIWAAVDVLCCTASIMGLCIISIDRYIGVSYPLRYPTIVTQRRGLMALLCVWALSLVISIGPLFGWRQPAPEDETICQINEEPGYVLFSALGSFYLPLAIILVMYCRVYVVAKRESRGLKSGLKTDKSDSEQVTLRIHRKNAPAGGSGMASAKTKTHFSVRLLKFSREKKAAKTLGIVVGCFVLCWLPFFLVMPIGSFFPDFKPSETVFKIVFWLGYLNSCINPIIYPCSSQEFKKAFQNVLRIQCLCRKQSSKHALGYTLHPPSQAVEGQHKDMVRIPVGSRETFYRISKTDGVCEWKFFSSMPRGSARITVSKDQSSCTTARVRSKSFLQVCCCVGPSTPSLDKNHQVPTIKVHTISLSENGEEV
As to the kind of experiment: α1A receptor binding inhibitory activity, [3H]-Prazosin binding to CHO-K1 membrane fraction. Conditions: inhibition of [3H]-Prazosin (2.5 nM) binding to membrane fraction of CHO-K1 cells expressing human α1A receptor. The protocol: b) Measurement of α1 A Receptor Binding Inhibitory Activity
The genetic engineering procedures as described below were based on the methods described in the textbook (Maniatis, et al., Molecular Cloning, Cold Spring Harbor Laboratory, 1989) or the methods described in the protocols attached to the reagents.
(i) Preparation of Expression Plasmid of Human Adrenaline α1 A Receptor
An adrenaline α1 A receptor gene was cloned from human liver cDNA by means of a PCR method. PCR reaction was performed in a Gene Amp PCR System 9700 (Applied Biosystems) with 200 ng of a human liver cDNA library (Takara Shuzo Co., Ltd.) as a template, by adding 50 pmol of each of the primer sets shown below which were prepared with referring to the base sequence of the adrenaline α1 A receptor gene reported by Hirasawa A. et al. (Biochem. Biophys. Res. Commun., 195, 902-909 (1993)): 5′-[…]-3′ [SEQ ID NO: 1], and 5′-[…]-3′ [SEQ ID NO: 2], and using a TaKaRa Pyrobest DNA Polymerase (Takara Shuzo Co., Ltd.) (reaction condition: 45 cycles of 94° C. for 15 seconds and 68° C. for 3 minutes and 30 seconds).
Thus obtained PCR fragments were digested with a restriction enzyme Eco RI (Takara Shuzo Co., Ltd.) and Sal I (Takara Shuzo Co., Ltd.), and then subjected to electrophoresis on agarose gel to recover DNA fragments. […]
The compound `COc1ccccc1N1CCN(CCCNc2cc(=O)n(C)c(=O)n2C)CC1` [Urapidil, urapidil, reference compound] had an IC50 of 0.47 µM.
As for `NS(=O)(=O)c1cc(C(=O)CCCCNCCc2ccccc2OC(F)(F)F)cc2c1OCC2` [Example 6, 5-[5-({2-[2-(Trifluoromethoxy)phenyl]ethyl}amino)-pentanoyl]-2,3-dihydro-1-benzofuran-7-sulfonamide tosylate], the IC50 stood at 0.019 µM.

Another series deals with T2, acetylcholinesterase from human erythrocyte origin (Homo sapiens, UniProt P22303).
T2 construct: Acetylcholinesterase from human erythrocyte origin (Sigma Chemical Co.); purchased Sigma Chemical Co; host or cells: human erythrocytes (tissue-derived enzyme)
T2 sequence (P22303 32-617 isoform P22303-2 limits assumed): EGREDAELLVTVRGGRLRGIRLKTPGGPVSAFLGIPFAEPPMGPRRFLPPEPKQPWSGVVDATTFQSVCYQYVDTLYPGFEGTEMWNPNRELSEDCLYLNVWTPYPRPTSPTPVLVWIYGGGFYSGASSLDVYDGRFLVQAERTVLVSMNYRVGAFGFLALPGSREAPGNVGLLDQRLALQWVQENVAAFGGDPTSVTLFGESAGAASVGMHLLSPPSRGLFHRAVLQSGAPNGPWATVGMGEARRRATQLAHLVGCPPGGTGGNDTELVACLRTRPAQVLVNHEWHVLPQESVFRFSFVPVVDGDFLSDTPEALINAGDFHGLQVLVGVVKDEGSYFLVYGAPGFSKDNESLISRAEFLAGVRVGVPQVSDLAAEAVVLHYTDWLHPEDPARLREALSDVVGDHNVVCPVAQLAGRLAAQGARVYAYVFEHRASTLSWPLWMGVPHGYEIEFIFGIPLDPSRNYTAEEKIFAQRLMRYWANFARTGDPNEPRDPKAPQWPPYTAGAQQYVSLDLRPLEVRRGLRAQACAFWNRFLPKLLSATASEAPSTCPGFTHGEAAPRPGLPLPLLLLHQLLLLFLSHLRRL
As to the kind of experiment: Acetylcholinesterase-inhibitory action, acetylthiocholine method (Ellman method). It counts as biochemical. The settings on record: repeated at least 3 times, read-out: AChE: IC50. The procedure: a) Measurement of Acetylcholinesterase-Inhibitory Action
Acetylcholinesterase-inhibitory action of the Example Compounds was measured using acetylcholinesterase from human erythrocyte origin according to the acetylthiocholine method (Ellman method).
Acetylcholinesterase from human erythrocyte origin (Sigma Chemical Co.) was dissolved in distilled water at a concentration of 0.2 IU/mL to give an enzyme authentic sample. To a 96-well microplate 20 μL of drug solution, 30 μL of 80 mM Tris-HCl (pH 7.4), 50 μL of enzyme authentic sample and 50 μL of 5 mM 5,5-dithio-bis(2-nitrobenzoic acid) (Sigma Chemical Co.) were added, and the plate was shaken for 10 seconds. Then, 50 μL of acetylthiocholine iodide (Sigma Chemical Co.) was added, and the plate was again shaken. Immediately after shaking, absorbance at 414 nm was measured at intervals of 30 seconds for 10 minutes.
The experiment was repeated at least 3 times for each compound to obtain 50% inhibitory concentration (IC50). Moreover, in the same manner as mentioned above, acetylcholinesterase-inhibiting activity of distigmine was measured.
`CN(CCCCCCN(C)C(=O)Oc1ccc[n+](C)c1)C(=O)Oc1ccc[n+](C)c1` [Distigmine, distigmine, reference compound]: the IC50 was found to be 0.27 µM.
Still for that read-out and setting: in the case of `NS(=O)(=O)c1cc(C(=O)CCCCNCCc2ccccc2OC(F)(F)F)cc2c1OCC2` [Example 6, 5-[5-({2-[2-(Trifluoromethoxy)phenyl]ethyl}amino)-pentanoyl]-2,3-dihydro-1-benzofuran-7-sulfonamide tosylate] it was 0.08 µM.

Tested on in the next series: not given
Assay: not given
Details: not given
For `Cl.NS(=O)(=O)c1cc(C(=O)CCCCNCCc2ccccc2OC(F)(F)F)cc2c1OCCO2`, the melting point is 111 to 113 °C.
The compound `CC(C)NS(=O)(=O)c1cc(C(=O)CCCCNCCc2ccccc2OC(F)(F)F)cc2c1OCC2.Cl` came in with a melting point of 173 to 175 °C.
The same measure, in the same setting: as for `CNS(=O)(=O)c1cc(C(=O)CCCCNCCc2ccccc2OC(F)(F)F)cc2c1OCC2.Cl`, the figure is 135 to 137 °C; as for `NS(=O)(=O)c1cc(C(O)CCCCNCCc2ccccc2OC(F)(F)F)cc2c1OCC2.O=C(O)/C=C\C(=O)O` (stereo not shown), 61 to 63 °C; as for `CNS(=O)(=O)c1cc(C(=O)CCCCNCCc2ccccc2OC(F)(F)F)cc2c1CCC2.Cl`, 143 to 145 °C.
Still for that read-out and setting: in the case of `COc1ccc(C(=O)CCCCNCCc2ccccc2OC(F)(F)F)cc1S(=O)(=O)NC(C)C.Cl` it was 156 to 158 °C; in that of `COc1ccc(C(=O)CCCCNCCc2ccccc2OC(F)(F)F)cc1S(N)(=O)=O.Cl`, 169 to 171 °C; in that of `CS(=O)(=O)Nc1cc(C(=O)CCCCNCCc2ccccc2OC(F)(F)F)cc2c1OCC2.Cl`, 112 to 114 °C.
Still for that read-out and setting: in the case of `COc1ccccc1CCNCCCCC(=O)c1cc2c(c(S(N)(=O)=O)c1)CCC2.Cl` it was 106 to 108 °C; in that of `COc1ccccc1CCNCCCCCC(=O)c1cc2c(c(S(N)(=O)=O)c1)OCC2.Cl`, 92 to 94 °C; in that of `Cl.NS(=O)(=O)c1cc(C(=O)CCCCNCCc2ccccc2OC(F)(F)F)cc2c1CCC2`, 139 to 141 °C.
In the case of `Cl.NS(=O)(=O)c1cc(C(=O)CCCCNCCc2ccccc2Cl)cc2c1CCC2`, the melting point is 167 to 169 °C.
Still for that read-out and setting: as for `Cl.NS(=O)(=O)c1cc(C(=O)CCCCCNCCc2ccccc2Cl)cc2c1OCC2`, the figure is 107 to 109 °C.
As for `CC(=O)Nc1cc(C(=O)CCCCNCCc2ccccc2OC(F)(F)F)cc2c1OCC2.Cl`, the melting point is 120 to 122 °C.
The same measure, in the same setting: as for `Cl.NS(=O)(=O)c1cc(C(=O)CCCCCNCCc2ccccc2OC(F)(F)F)cc2c1OCC2`, the figure is 85 to 87 °C.
